Data as given in ChEMBL document CHEMBL2385041, “The discovery of colchicine-SAHA hybrids as a new class of antitumor agents” (Bioorg Med Chem, 2013).
The source made the active and inactive calls. The rule behind the calls is not given here.

Experiments:
[1] = molecular target: Histone deacetylase 1 (Homo sapiens, UniProt Q13547); assay: Inhibition of human recombinant HDAC1 expressed in High5 insect cells using Ac-Lys-Tyr-Lys(-acetyl)-AMC as substrate after 24 hrs by fluorescence assay
[2] = test system: A-431; assay: Cytotoxicity against human A431 cells after 72 hrs by MTT assay; type: functional, cell-based; details: A-431, 72 h
[3] = test system: A549; assay: Cytotoxicity against human A549 cells after 72 hrs by MTT assay; type: functional, cell-based; details: A549, 72 h
[4] = test system: HCT-116; assay: Cytotoxicity against human HCT116 cells after 72 hrs by MTT assay; type: functional, cell-based; details: HCT-116, 72 h
[5] = molecular target: T1, Protein deacetylase HDAC6 (Homo sapiens, UniProt Q9UBN7); assay: Inhibition of human recombinant HDAC6 expressed in High5 insect cells using Boc-Lys (-acetyl)-AM) as substrate after 24 hrs by fluorescence assay
T1 sequence (Q9UBN7 whole entry): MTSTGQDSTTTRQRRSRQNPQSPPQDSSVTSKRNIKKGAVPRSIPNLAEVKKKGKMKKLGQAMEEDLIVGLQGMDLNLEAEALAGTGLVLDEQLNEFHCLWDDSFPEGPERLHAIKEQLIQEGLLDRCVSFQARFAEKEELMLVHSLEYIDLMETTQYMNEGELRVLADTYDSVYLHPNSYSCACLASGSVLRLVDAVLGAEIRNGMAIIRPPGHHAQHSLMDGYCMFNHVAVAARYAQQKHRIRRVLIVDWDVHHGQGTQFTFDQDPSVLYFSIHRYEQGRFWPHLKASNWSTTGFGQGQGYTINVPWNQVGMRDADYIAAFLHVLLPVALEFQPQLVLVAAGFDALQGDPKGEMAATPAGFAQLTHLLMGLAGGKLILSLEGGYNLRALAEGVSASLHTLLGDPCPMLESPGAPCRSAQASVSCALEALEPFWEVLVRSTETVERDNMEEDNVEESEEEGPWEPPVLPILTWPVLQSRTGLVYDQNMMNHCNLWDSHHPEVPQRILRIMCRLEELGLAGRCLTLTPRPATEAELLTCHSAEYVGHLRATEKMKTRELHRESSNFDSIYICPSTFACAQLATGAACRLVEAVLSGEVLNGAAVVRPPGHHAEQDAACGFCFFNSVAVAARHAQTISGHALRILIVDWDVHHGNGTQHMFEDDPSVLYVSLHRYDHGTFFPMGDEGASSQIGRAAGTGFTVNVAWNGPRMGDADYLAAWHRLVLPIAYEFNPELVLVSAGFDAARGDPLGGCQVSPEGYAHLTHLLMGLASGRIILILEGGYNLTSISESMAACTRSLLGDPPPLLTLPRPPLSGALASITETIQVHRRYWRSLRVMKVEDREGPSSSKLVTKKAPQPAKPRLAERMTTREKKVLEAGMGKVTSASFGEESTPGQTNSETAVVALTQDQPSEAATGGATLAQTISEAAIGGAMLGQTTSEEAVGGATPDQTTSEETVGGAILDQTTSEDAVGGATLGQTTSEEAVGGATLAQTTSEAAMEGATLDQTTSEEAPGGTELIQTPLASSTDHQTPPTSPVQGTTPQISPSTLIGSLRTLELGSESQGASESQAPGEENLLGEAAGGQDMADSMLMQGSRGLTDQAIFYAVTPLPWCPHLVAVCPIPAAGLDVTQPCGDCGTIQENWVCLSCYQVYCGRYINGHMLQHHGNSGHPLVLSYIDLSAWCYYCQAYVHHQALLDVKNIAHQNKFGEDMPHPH

[6] = molecular target: Histone deacetylase 3 (Homo sapiens, UniProt O15379); assay: Inhibition of human recombinant HDAC3 expressed in High5 insect cells using Ac-Lys-Tyr-Lys(-acetyl)-AMC as substrate after 24 hrs by fluorescence assay
Chain of Histone deacetylase 3 (O15379 whole entry): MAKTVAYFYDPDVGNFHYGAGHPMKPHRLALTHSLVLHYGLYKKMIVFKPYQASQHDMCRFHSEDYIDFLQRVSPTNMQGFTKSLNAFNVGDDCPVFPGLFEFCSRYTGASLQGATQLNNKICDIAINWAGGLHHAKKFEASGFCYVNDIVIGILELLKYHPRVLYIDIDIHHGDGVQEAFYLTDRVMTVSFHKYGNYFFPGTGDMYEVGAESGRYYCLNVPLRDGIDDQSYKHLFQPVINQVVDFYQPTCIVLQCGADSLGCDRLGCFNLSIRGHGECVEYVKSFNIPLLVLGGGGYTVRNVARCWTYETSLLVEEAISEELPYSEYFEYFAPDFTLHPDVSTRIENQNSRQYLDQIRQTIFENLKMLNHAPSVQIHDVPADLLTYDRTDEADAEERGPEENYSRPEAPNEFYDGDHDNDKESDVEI

[7] = test system: MCF7; assay: Cytotoxicity against human MCF7 cells after 72 hrs by MTT assay; type: functional, cell-based; details: MCF7, 72 h
[8] = test system: PC-3; assay: Cytotoxicity against human PC3 cells after 72 hrs by MTT assay; type: functional, cell-based; details: PC-3, 72 h
[9] = test system: Bel-7402; assay: Cell cycle arrest in human Bel7402 cells assessed as accumulation at G2/M phase at 1 uM relative to control; type: functional, cell-based
[10] = test system: Bel-7402; assay: Cell cycle arrest in human Bel7402 cells assessed as accumulation at G2/M phase at 10 uM relative to control; type: functional, cell-based

Chain of Histone deacetylase 1 (Q13547 whole entry): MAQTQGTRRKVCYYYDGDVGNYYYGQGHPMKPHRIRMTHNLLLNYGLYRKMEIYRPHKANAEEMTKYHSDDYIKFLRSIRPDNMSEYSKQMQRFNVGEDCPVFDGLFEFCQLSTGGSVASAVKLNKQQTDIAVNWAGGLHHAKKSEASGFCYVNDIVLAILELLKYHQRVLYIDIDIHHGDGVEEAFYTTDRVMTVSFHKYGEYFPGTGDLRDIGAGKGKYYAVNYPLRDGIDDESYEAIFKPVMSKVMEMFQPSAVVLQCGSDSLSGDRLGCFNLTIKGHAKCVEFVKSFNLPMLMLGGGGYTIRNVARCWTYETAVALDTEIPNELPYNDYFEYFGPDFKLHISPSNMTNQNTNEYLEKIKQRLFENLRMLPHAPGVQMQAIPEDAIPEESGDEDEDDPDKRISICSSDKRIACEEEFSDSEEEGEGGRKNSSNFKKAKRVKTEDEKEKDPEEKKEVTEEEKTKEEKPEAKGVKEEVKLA

Row | Compound | IC50 [1] [nM] | IC50 [2] [nM] | IC50 [3] [nM] | IC50 [4] [nM] | IC50 [5] [nM] | IC50 [6] [nM] | IC50 [7] [nM] | IC50 [8] [nM] | Activity [9] | Activity [10]
1 | COc1cc2c(c(OC)c1OC)-c1ccc(OC)c(=O)cc1[C@@H](NC(=O)CCCCCC(=O)NO)CC2 | 1600 | 1230 | 7290 | 1380 | 760 | 1030 | 948 | 2940 | Active | Active
2 | COc1cc2c(c(OC)c1OC)-c1ccc(OC)c(=O)cc1[C@@H](NC(C)=O)CC2 [COLCHICINE] | – | 19 | 23 | 37 | – | – | 17 | 74 | – | –
3 | COc1cc2c(c(OC)c1OC)-c1ccc(OC)c(=O)cc1[C@@H](NC(=O)CCCCCCC(=O)NO)CC2 | – | 3430 | 7260 | 2600 | 9830 | – | 1380 | 3380 | Active | Active
4 | COc1cc2c(c(OC)c1OC)-c1ccc(OC)c(=O)cc1[C@@H](NC(=O)CCCC(=O)NO)CC2 | 9580 | 1830 | 7370 | 2740 | 8240 | 8360 | 876 | 2340 | Active | Active
5 | COc1cc2c(c(OC)c1OC)-c1ccc(OC)c(=O)cc1[C@@H](NC(=O)CCCCC(=O)NO)CC2 | 720 | 1030 | 4930 | 2080 | 440 | 830 | 928 | 5400 | Active | Active
6 | COc1cc2c(c(OC)c1OC)-c1ccc(OC)c(=O)cc1[C@@H](NC(=O)CCC(=O)NO)CC2 | 1330 | 242 | 4670 | 903 | 3430 | 1360 | 825 | 813 | Active | Active
